Target: PAS domain-containing serine/threonine-protein kinase (Homo sapiens, UniProt Q96RG2)
Assay: PAS Kinase FRET Assay: The aim of the FRET assay is to determine the inhibition potential of test compounds on targeted kinase. This assay platform provides a homogenous screening method for measuring kinase activity by quantitating the amount of phospho-substrate in solution following a kinase reaction.In the presence of kinase and ATP, the Ulight-peptide is phosphorylated and captured by an anti-phospho-substrate antibody, which brings the Eu chelate donor and Ulight acceptor dyes into close proximity. Upon excitation at 340 nm, the Eu chelate transfers its energy to the Ulight dye, resulting in a fluorescent light emission at 665 nm.Titration of kinase at 1 mM ATP was achieved via the following protocol. After making serial three-fold dilutions of PASK (Invitrogen) in reaction buffer across the plate; 5 μl of kinase dilution and 5 μl substrate/ATP mix were added to the wells of the white Optiplate-384 (PerkinElmer). The contents of the plate were and incubated at RT for 1 h. The reaction was stopped by adding 5 μl of stop solution to each test well followed by mixing and incubation at RT for 10 minutes. 5 μl of detection mix (detection antibody diluted in detection buffer) was added; the contents of the plate were mixed and then incubated in the dark for 1 hour at RT. The signal was recorded at TR-FRET mode (665 nm/615 nm). The results were graphed to calculate the EC50. […]

PAS domain-containing serine/threonine-protein kinase, sequence (Q96RG2 whole entry, the tested form may be a part): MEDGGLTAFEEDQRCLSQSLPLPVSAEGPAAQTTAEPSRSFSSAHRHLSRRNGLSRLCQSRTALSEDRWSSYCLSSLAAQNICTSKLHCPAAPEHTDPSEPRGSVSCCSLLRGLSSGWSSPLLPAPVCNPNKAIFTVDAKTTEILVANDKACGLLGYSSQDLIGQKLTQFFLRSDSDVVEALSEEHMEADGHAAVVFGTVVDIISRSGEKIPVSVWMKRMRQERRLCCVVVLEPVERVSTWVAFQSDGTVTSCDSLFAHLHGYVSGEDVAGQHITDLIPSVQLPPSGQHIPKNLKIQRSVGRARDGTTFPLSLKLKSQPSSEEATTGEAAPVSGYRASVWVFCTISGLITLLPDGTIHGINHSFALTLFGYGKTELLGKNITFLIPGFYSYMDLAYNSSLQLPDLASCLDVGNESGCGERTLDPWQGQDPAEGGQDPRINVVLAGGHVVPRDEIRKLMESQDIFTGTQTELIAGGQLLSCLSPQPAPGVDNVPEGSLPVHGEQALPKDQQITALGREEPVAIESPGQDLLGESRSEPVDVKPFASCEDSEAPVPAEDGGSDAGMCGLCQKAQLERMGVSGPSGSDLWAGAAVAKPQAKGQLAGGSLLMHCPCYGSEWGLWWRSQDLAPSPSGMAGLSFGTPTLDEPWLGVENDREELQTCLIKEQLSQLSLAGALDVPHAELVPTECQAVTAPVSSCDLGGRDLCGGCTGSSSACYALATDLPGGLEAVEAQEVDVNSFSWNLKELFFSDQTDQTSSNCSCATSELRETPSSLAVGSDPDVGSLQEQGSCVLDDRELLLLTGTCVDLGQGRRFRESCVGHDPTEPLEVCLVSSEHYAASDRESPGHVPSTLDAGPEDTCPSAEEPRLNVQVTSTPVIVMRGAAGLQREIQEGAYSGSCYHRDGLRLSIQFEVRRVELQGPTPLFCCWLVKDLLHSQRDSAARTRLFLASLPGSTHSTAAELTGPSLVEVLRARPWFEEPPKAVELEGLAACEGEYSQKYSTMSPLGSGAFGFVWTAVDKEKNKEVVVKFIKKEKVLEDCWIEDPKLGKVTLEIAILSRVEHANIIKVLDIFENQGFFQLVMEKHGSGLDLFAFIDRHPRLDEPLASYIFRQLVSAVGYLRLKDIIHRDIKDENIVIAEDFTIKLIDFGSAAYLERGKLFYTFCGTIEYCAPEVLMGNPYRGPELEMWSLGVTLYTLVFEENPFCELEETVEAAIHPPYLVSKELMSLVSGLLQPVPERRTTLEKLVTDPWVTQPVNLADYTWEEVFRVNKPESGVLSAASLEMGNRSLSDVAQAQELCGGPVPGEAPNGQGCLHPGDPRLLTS

Question: With `CN(c1nc2cc(C(=O)O)ccc2nc1-c1ccc(F)cc1)C1CCNCC1` as the compound, how does the IC50 read?
Answer: < 10 µM

Reference: ChEMBL document CHEMBL5729348, “Heterocyclic compounds for the inhibition of PASK” (2022)
